Test results reported in patent US7687500B2, “Substituted oxetanes, method of making, and method of use thereof” (The University of Connecticut, priority 2004, dated 2010).

Legend:
HIV = settings: in vitro; cited from earlier work

melting point [°C]	SMILES	anti-HIV activity (HIV)
–	Nc1ncnc2c1ncn2[C@@H]1O[C@H](CO)[C@H]1CO [oxetanocin]	potent anti-HIV activity in vitro
119 to 123	OCC1(n2nc3ccccc3n2)OCC1c1ccccc1 (stereo not drawn) [Example 1, 2-(Benzotriazol-2-yl)-2-(hydroxymethyl)-3-phenyloxetane]	–
77 to 78.3	OCC1(n2nccn2)OCC1c1ccccc1 (stereo not drawn) [Example 2, 2-Hydroxymethyl-3-phenyl-2-(1,2,3-triazol-2-yl)oxetane]	–
